Values belong to the compound of their own block, whether it stands above or below them.
Experiment: photoluminescence quantum yield (fraction); solvent given as SMILES

photoluminescence quantum yield (in ClCCl): 0.03
SMILES: CC(C)(C)NC(=O)c1ccc(-c2ccc(N3c4ccccc4Oc4ccccc43)cc2)c2ccc3c4ccc(F)cc4c4cc(F)ccc4c3c12

photoluminescence quantum yield (in ClC(Cl)Cl): 0.69
SMILES: Cc1ccc(CN(Cc2ccc(C)cc2)c2nc(C#N)c(N(Cc3ccc(C)cc3)Cc3ccc(C)cc3)nc2C#N)cc1

photoluminescence quantum yield (in ClCCl): 0.24
SMILES: COc1ccc(C#Cc2nc3ccccc3nc2-c2ccn(-c3ccccc3)c2)cc1

photoluminescence quantum yield (in CC#N): 0.12
SMILES: Oc1ccc2ccccc2c1/C=N/CC/N=C/c1c(O)ccc2ccccc12

photoluminescence quantum yield (in ClC(Cl)Cl): 0.02
SMILES: Cc1c2c(c(C)c3ccccc13)-c1c-2ccc2nc3ccccc3nc12

photoluminescence quantum yield (in ClCCl): 0.25
SMILES: O=P1(c2ccccc2)c2cccc3c4ccccc4c4ccc1n4c23 (configuration not stated)

photoluminescence quantum yield (in ClCCl): 0.75
SMILES: c1ccc2c(-n3c(-c4ccc(-c5ccc(-c6nc7c8ccccc8c8ccccc8c7n6-c6cccc7ccccc67)c6ccccc56)c5ccccc45)nc4c5ccccc5c5ccccc5c43)cccc2c1

photoluminescence quantum yield (in CCCCCCC): 0.14
SMILES: c1cc2c3c(cccc3c1)-c1c-2ccc2ccc3ccccc3c12

photoluminescence quantum yield (in ClCCl): 0.058
SMILES: CCCc1c(C(=O)c2ccc3c4c(cccc24)-c2cccc4c2C3CC=C4)c2ccc3cccc4c5cccc6ccc1c(c65)c2c34 (configuration not stated)

photoluminescence quantum yield (in C1COCCO1): 0.55
photoluminescence quantum yield (in CC#N): 0.32
photoluminescence quantum yield (in CCCCCCC): 0.78
photoluminescence quantum yield (in CO): 0.02
SMILES: C(/C=C/c1ccc(-n2c3ccccc3c3ccccc32)cc1)=C\c1ccncc1

photoluminescence quantum yield (in C1COCCO1): 0
SMILES: CCC1=C(C2=C(C3=C(CC)S(=O)(=O)c4cc(-c5ccc(C)s5)ccc43)C(F)(F)C(F)(F)C2(F)F)c2ccc(-c3ccc(C)s3)cc2S1(=O)=O

photoluminescence quantum yield (in ClC(Cl)Cl): 0.099
SMILES: FC(F)(F)c1ccc2oc3nc4oc5ccc(N(c6ccccc6)c6ccccc6)cc5c4cc3c2c1

photoluminescence quantum yield (in CS(C)=O): 0.1
photoluminescence quantum yield (in ClCCl): 0.69
SMILES: CCN(CC)c1ccc2c(c1)oc(=O)c1c(=O)oc3cc(C#Cc4ccc(C#N)cc4)ccc3c12

photoluminescence quantum yield (in ClCCl): 0.3
SMILES: C[Si]1(C)O[Si](C)(C)c2cc3nc4ccccc4c(-c4ccc(F)cc4)c3cc2[Si](C)(C)O1

photoluminescence quantum yield (in C1CCCCC1): 0.88
SMILES: C[Si](C)(C)C#Cc1ccc2c3cccc4cccc(c5cccc1c52)c43

photoluminescence quantum yield (in C1CCOC1): 0.3
SMILES: c1ccc(/C(=C(\c2ccccc2)c2cc(-c3ccccc3)ccc2-c2ccccc2)c2cc(-c3ccccc3)ccc2-c2ccccc2)cc1

photoluminescence quantum yield (in C1CCCCC1): 0.65
photoluminescence quantum yield (in CCOC(C)=O): 0.11
SMILES: CC1=[N+]2C(=C(c3ccc4c(c3)Cc3ccccc3-4)c3ccc(C)n3[B-]2(F)F)C=C1c1cc2n(c1)[B-](F)(F)[N+]1=CC=CC1=C2c1c(C)cc(C)cc1C

photoluminescence quantum yield (in ClC(Cl)Cl): 0.026
SMILES: F[B-]1(F)OC(c2ccc(C(F)(F)F)cc2)=Cc2c3ccccc3cc[n+]21

photoluminescence quantum yield (in ClCCl): 0.00069
SMILES: COC(=O)C1=C(C(=O)OC)C2(c3ccccc3-c3ccc([N+](=O)[O-])cc32)C2(/C=C/c3ccccc3)c3cc(OC)c(OC)cc3CCN12 (configuration not stated)

photoluminescence quantum yield (in C1CCCCC1): 0.96
photoluminescence quantum yield (in CCOC(C)=O): 0.73
photoluminescence quantum yield (in CO): 0.29
SMILES: CCCCCCOc1ccc2oc3c(c2c1)=CC1=C(c2ccccc2C)c2cc4c5cc(OCCCCCC)ccc5oc4n2[B-](F)(F)[N+]=31

photoluminescence quantum yield (in CN(C)C=O): 0.11
SMILES: CCOC(=O)C(Cc1ccc(O[Si]2(Oc3ccc(CC(NC(C)=O)C(=O)OCC)cc3)n3c4c5ccccc5c3/N=C3N=C(/N=c5/c6ccccc6/c(n52)=N/C2=NC(=N\4)/c4ccccc42)c2ccccc2\3)cc1)NC(C)=O (configuration not stated)

photoluminescence quantum yield (in ClCCl): 0.1
SMILES: CC(C)(C)c1ccc2c(c1)c1cc(C(C)(C)C)ccc1n2-c1ccc(C#Cc2ccc(C=O)cc2)cc1

photoluminescence quantum yield (in ClCCl): 0.416
SMILES: COc1ccc(C2=C(C)C3=C(c4c(-c5ccccn5)nc5ccccn45)c4c(C)c(-c5ccc(OC)cc5)c(C)n4[B-](F)(F)[N+]3=C2C)cc1

The remaining lines, values behind:

SMILES: O=C1/C(=C\c2ccc(N(c3ccccc3)c3ccccc3)cc2)S(=O)(=O)c2ccccc21
photoluminescence quantum yield (in C1CCOC1): 0.037
photoluminescence quantum yield (in C1COCCO1): 0.324
photoluminescence quantum yield (in CC#N): 0.002
photoluminescence quantum yield (in CC(C)=O): 0.003
photoluminescence quantum yield (in CCOC(C)=O): 0.036
photoluminescence quantum yield (in CN(C)C=O): 0.024
photoluminescence quantum yield (in CO): 0.021
photoluminescence quantum yield (in CS(C)=O): 0.032
photoluminescence quantum yield (in Cc1ccccc1): 0.559
photoluminescence quantum yield (in ClC(Cl)Cl): 0.142
photoluminescence quantum yield (in ClCCl): 0.022

SMILES: C=CCOc1ccc(-c2nc3cc(C(NC(=O)OC(C)(C)C)C(=O)OC)ccc3o2)cc1 (configuration not stated)
photoluminescence quantum yield (in CC1CCCCC1): 0.84
photoluminescence quantum yield (in CC#N): 0.56
photoluminescence quantum yield (in CO): 0.79

SMILES: CCCCCCCCn1c2ccc(/C=C/c3ccc(N(c4ccccc4)c4ccccc4)cc3)cc2c2cc3c(cc21)c1cc(/C=C/c2ccc(N(c4ccccc4)c4ccccc4)cc2)ccc1n3CCCCCCCC
photoluminescence quantum yield (in Cc1ccccc1): 0.6

SMILES: C#CCNC1=C2C(C)=CC(C)=[N+]2[B-](F)(F)n2c(C)cc(C)c21
photoluminescence quantum yield (in C1CCCCC1): 0.23
photoluminescence quantum yield (in CC(C)=O): 0.063
photoluminescence quantum yield (in CCOC(C)=O): 0.084
photoluminescence quantum yield (in CO): 0.051
photoluminescence quantum yield (in OCC(F)(F)F): 0.074

SMILES: CC1(C)CCc2c(c3ccccc3c3nc4ccccc4nc23)O1
photoluminescence quantum yield (in C1CCCCC1): 0.05
photoluminescence quantum yield (in C1CCOC1): 0.1
photoluminescence quantum yield (in CN(C)C=O): 0.13
photoluminescence quantum yield (in CO): 0.23
photoluminescence quantum yield (in ClC(Cl)Cl): 0.17
photoluminescence quantum yield (in c1ccccc1): 0.12

SMILES: c1cc2c3c(c1)-c1cccc4cccc(c14)B3c1cccc3cccc-2c13
photoluminescence quantum yield (in Cc1ccccc1): 0.9

SMILES: COc1ccc(-n2nc(C#N)c(N3CCCCC3)n2)cc1
photoluminescence quantum yield (in CC#N): 0.929

SMILES: CC1(C)c2ccccc2N2c3ccccc3C3(c4cc(C#N)ccc4-c4ccc(C#N)cc43)c3cccc1c32
photoluminescence quantum yield (in Cc1ccccc1): 0.71

SMILES: C(S/C=C/c1ccc(/C=C/SC=C2CCCCCCC2)cc1)=C1CCCCCCC1
photoluminescence quantum yield (in ClCCl): 0.018

SMILES: COc1ccc2c(C=C(C#N)C#N)cc3ccc4cc(C=C(C#N)C#N)c5ccc(OC)cc5c4c3c2c1
photoluminescence quantum yield (in ClC(Cl)Cl): 0.23

SMILES: CCCCCCCC[n+]1ccc(-c2cc[n+](CCCCCCCC)cc2)cc1
photoluminescence quantum yield (in CC#N): 0.009

SMILES: Cc1cc(C2=C(c3cc(C)sc3C)S(=O)(=O)c3ccccc32)c(C)s1
photoluminescence quantum yield (in C1CCOC1): 0.016

SMILES: Cc1ccc(C2=C3C=CC=[N+]3[B-](F)(F)n3cccc32)cc1
photoluminescence quantum yield (in C1CCCCC1): 0.036
photoluminescence quantum yield (in CC#N): 0.018
photoluminescence quantum yield (in CCO): 0.025
photoluminescence quantum yield (in CCOC(C)=O): 0.024
photoluminescence quantum yield (in CO): 0.018
photoluminescence quantum yield (in OCC(F)(F)F): 0.031

SMILES: CCN(CC)c1ccc2cc(/C=C/C(=O)c3cc4ccc(N(CC)CC)cc4oc3=O)c(=O)oc2c1
photoluminescence quantum yield (in C1CCOC1): 0.53
photoluminescence quantum yield (in C1COCCO1): 0.58
photoluminescence quantum yield (in CC#N): 0.11
photoluminescence quantum yield (in CC(C)=O): 0.27
photoluminescence quantum yield (in CCO): 0.07
photoluminescence quantum yield (in CCOC(C)=O): 0.57
photoluminescence quantum yield (in CN(C)C=O): 0.01
photoluminescence quantum yield (in CS(C)=O): 0.06
photoluminescence quantum yield (in Cc1ccccc1): 0.68
photoluminescence quantum yield (in ClC(Cl)Cl): 0.5
photoluminescence quantum yield (in ClCCl): 0.59
photoluminescence quantum yield (in O): 0

SMILES: CCCCCCCCc1ccc(-c2ccc(/C=C(\C#N)c3ccc(-c4cccc5cccc(-c6ccc(/C(C#N)=C/c7ccc(-c8ccc(CCCCCCCC)cc8)cc7)cc6)c45)cc3)cc2)cc1
photoluminescence quantum yield (in Cc1ccccc1): 0.12

SMILES: CCN(CC)c1ccc2cc(C#N)/c(=N\C(=O)C(C)C)oc2c1
photoluminescence quantum yield (in CCO): 0.047
photoluminescence quantum yield (in ClCCl): 0.83

SMILES: CC1(C)c2ccccc2N(c2ccc3c(c2)c2cc(N4c5ccccc5C(C)(C)c5ccccc54)cc4c5ccccc5n3c42)c2ccccc21
photoluminescence quantum yield (in O=P(c1ccccc1)(c1ccccc1)c1ccccc1Oc1ccccc1P(=O)(c1ccccc1)c1ccccc1): 0.96

SMILES: CCCCCCCCc1ccc(-n2c3c4ccccc4nnc3c3c2c2nnc4ccccc4c2n3-c2ccc(CCCCCCCC)cc2)cc1
photoluminescence quantum yield (in Cc1ccccc1): 0

SMILES: C[C@]12C(=O)NC(=O)N([C@H]3CC(O)[C@@H](CO)O3)[C@H]1[C@H]1Oc3cc4oc(=O)ccc4cc3[C@H]12 (some centres not stated)
photoluminescence quantum yield (in CC(C)O): 0.003
photoluminescence quantum yield (in CCO): 0.005
photoluminescence quantum yield (in CCOCC): 0.001
photoluminescence quantum yield (in CO): 0.007
photoluminescence quantum yield (in O): 0.044

SMILES: CCOC(=O)c1cc(C(=O)OCC)c2ccc(O)cc2n1
photoluminescence quantum yield (in CCO): 0.007

SMILES: Cn1c2ccccc2c2c1c1ccccc1n2C
photoluminescence quantum yield (in CCCO): 0.81

SMILES: CCN(CC)c1ccc2c(c1)C(C)(C)C(=O)C=C2
photoluminescence quantum yield (in O): 0.09

SMILES: CN(C)c1ccc2nc(-c3ccc(C=C(C#N)C#N)cc3)sc2c1
photoluminescence quantum yield (in C1CCCCC1): 0.85
photoluminescence quantum yield (in CC#N): 0
photoluminescence quantum yield (in CO): 0
photoluminescence quantum yield (in ClC(Cl)Cl): 0.64

SMILES: O=c1oc2ccccc2cc1-c1cc2ccccc2o1
photoluminescence quantum yield (in CC#N): 0.75
photoluminescence quantum yield (in CCOC(C)=O): 0.79
photoluminescence quantum yield (in CS(C)=O): 0.99
photoluminescence quantum yield (in Cc1ccccc1): 0.88
photoluminescence quantum yield (in O): 0.15

SMILES: COc1ccc(/C=C/c2ccccc2)cc1
photoluminescence quantum yield (in C1CCCCC1): 0.022
photoluminescence quantum yield (in CC#N): 0.007
photoluminescence quantum yield (in CC(C)O): 0.011
photoluminescence quantum yield (in CCCCOCCCC): 0.02
photoluminescence quantum yield (in CCOC(C)=O): 0.016
photoluminescence quantum yield (in CCOCC): 0.015

SMILES: CC1=CC(C)=[N+]2C1=C(c1c3ccccc3c(-c3ccccc3)c3ccccc13)c1c(C)cc(C)n1[B-]2(F)F
photoluminescence quantum yield (in CC#N): 0.007
photoluminescence quantum yield (in CCCCCC): 0.9
photoluminescence quantum yield (in CCO): 0.02
photoluminescence quantum yield (in CN(C)C=O): 0.01
photoluminescence quantum yield (in Cc1ccccc1): 0.79
photoluminescence quantum yield (in ClCCl): 0.024

SMILES: CCOC(=O)c1[nH]c(C)c(/C=C/c2c(I)c(C)c3n2[B-](F)(F)[N+]2=C(C)C(I)=C(C)C2=C3c2cc(OC)cc(OC)c2)c1C
photoluminescence quantum yield (in C1CCOC1): 0.22
photoluminescence quantum yield (in CS(C)=O): 0.23
photoluminescence quantum yield (in ClCCl): 0.21

SMILES: N#Cc1ccc(/C=C/C(F)(F)F)c(N)c1
photoluminescence quantum yield (in C1CCOC1): 0.82

SMILES: CN(C)c1ccc2cc(C3=[O+][B-](F)(F)OC(c4ccccc4)=C3)ccc2c1
photoluminescence quantum yield (in C1CCOC1): 0.1
photoluminescence quantum yield (in CC#N): 0.007
photoluminescence quantum yield (in CC(C)=O): 0.01
photoluminescence quantum yield (in CS(C)=O): 0.005
photoluminescence quantum yield (in Cc1ccccc1): 0.97
photoluminescence quantum yield (in ClC(Cl)Cl): 0.9
photoluminescence quantum yield (in ClCCl): 0.13

SMILES: COc1cc2c3c4c(c5ccc(C(C)(C)C)cc5c5cc(C(C)(C)C)cc(c2c(OC)c1OC)c45)=[N+]1C3=Nc2c3c4cc(OC)c(OC)c(OC)c4c4cc(C(C)(C)C)cc5c6cc(C(C)(C)C)ccc6c(c3c54)n2[B-]1(F)F
photoluminescence quantum yield (in Cc1ccccc1): 0.07
